We go through 4 molecules from patent publication US6451334B2, “Compositions and administration of compositions for the treatment of blood disorders” (priority 1997, dated 2002).

For orientation: half-life means how long it takes for the measured level to halve. Higher therefore signals slow decline.

Values joined by “and” are separate entries in the source; they are usually repeats but may differ in a detail not shown here. Equal entries are not always repeated. Where two headings read alike, the source gives them in different places.

In one data set the test system is bone marrow cells. Conditions: continuous intravenous administration; cited from earlier work.
The subject of a further data set is K562 cells. Kind of data set: Treatment of K562 cells and analysis of globin mRNA by primer extension. The data set is classed as cell-based, human. Conditions: for fold induction at 1000 µM: Homo sapiens, K562, 72 h, read-out: increase in γ-globin mRNA over constitutive levels in untreated control K562 cells; for stimulating γ globin compared to control cells (ranking in words) / Radioactivity Alpha Globin (α) mRNA / Radioactivity Fetal Globin (γ) mRNA / γ/α: K562 cells; for Radioactivity Alpha Globin (α) mRNA / Radioactivity Fetal Globin (γ) mRNA: phosphorimager; for γ/α: ratio of globin mRNA radioactivity. As for the experimental part:
K562 cells kindly provided by Dr. George Atweh were cultured with 10% fetal bovine serum (Sigma, St. Louis, Mo.) and RPMI media (Grand Island Biological Company, Grand Island, N.Y.) in a humidified atmosphere with 5% CO2/95% air. Compounds were tested at a final concentration of 1 mM at neutral pH and included butyric acid, phenoxyacetic acid, dimethylbutric acid, alpha-methylhydrocionamic acid, 2,3, and 4-methoxyhydrocinnamic acid, dihydrocinnamic acid, methoxycinnamic acid, methoxyacetic acid, phenylpropionic acid, amino hydrocinnamic acid, DL β- and DL-βamino-n-butyric acid, cinnamic acid, and 2 methylhydrocinnamic acid (Aldrich Chemical Company, St. Louis, Mo.). Additional compounds studied included dimethylhydroxy acetic acid, dimethylpropionic acid, dimethylphenoxyacetic acid, and dimethylmethoxyacetic acid. After three days of culture with these agents, mRNA was purified and α, β, and γ globin mRNA was analyzed by primer extension using oligonucleotide primers and quantitation on a PhosphoImager as previously described.

A further data set deals with 32D cells. The data set is described as follows: Proliferation studies using 32D cells at low IL-3. It is filed as cell-based, murine. The note with it: 32D cells, low IL-3 (0.5 U/ml), FIG. 7. As for the experimental part: 32D cells were cultured in RPMI media with 10% fetal bovine serum (Sigma, St. Louis, Mo.), […] glutamine (GIBCO), and murine IL3 (20 U/ml) (Biosource International). Growth factor controls used included the standard concentration of IL-3 required for proliferation of these cells (25 U/ml) and a 50-fold lower concentration (0.5 U/ml), and erythropoietin (3 U/ml) or G-CSF ( U/ml), (Amgen, Thousand Oaks, Calif.). The test compounds were added at final concentrations of 1 mM. As a cell density of 2.5−10×10^5 is necessary for growth of this cell line, this density was maintained by passing the cells at three day intervals or by concentrating the cells when apoptosis occurred. Proportions of cells which were viable or apoptotic, and the fraction of cells in each part of the cell cycle was assessed by incubating the cells with Trypan blue and enumeration, and with propidium iodide incubation and FACScan analysis as previously described.
The effects of the representative compounds which have been synthesized or selected for resistance to beta oxidative metabolism and glucuronidation in stimulating γ globin gene expression in a human erythroid-like cell line and for their effects on cell growth utilizing a multi-lineage murine hematopoietic cell line, 32D. This cell line is dependent on high concentrations of IL-3 for growth. […]

In data set [1] the test system is mice transgenic for a human beta globin locus YAC containing a silenced gamma globin gene. The data set is described as follows: In vivo experiments in mice transgenic for the human beta globin gene locus. As for the experimental part: Three prototype compounds, methylhydrocinnamic acid (MHCA), phenoxyacetic acid (PAA), and dimethylbutyric acid PMB), were administered at doses from 100 to 250 mg/kg in two daily doses by intraperitoneal injection to mice transgenic for a human beta globin locus YAC containing a silenced gamma globin gene. Reticulocytes, newly synthesized red blood cells, were counted daily and non-alpha globin in MRNA was analyzed by Rnase protection. Only 50 microliters of blood were removed daily for testing. A 5 to 10-fold increase in reticulocytes and a 1.7-2.4 fold increase in gamma globin mRNA was observed within one week of therapy with the three protype compounds. In contrast, control mice to which normal saline was administered, with the same degree of phlebotomy for testing, had no significant changes in reticulocytes or globin in mRNA.

For another data set, the system named is anemic baboon. Kind of data set: Hematopoietic stimulation in an anemic phlebotomized baboon. It is filed as in vivo. Conditions: administered for five days, baboon phlebotomized 5% of blood volume daily, FIG. 13. On the procedure:
An increase in multiple blood cell lineages resulted when a prototype hemokine compound (α methylhydrocinnamic acid) was administered for five days to an anemic baboon, which was being phlebotomized 5% of its blood volume daily.

The subject of data set [2] is Mononuclear cells from patients with sickle cell disease or thalassemia trait. Kind of data set: Erythroid colony (BFU-E) cultures in methylcellulose. The data set is classed as cell-based, human. The note with it: 0.2-0.5 mM, optimal growth factors. On the procedure: Mononuclear cells from patients with sickle cell disease or thalassemia trait were isolated on Ficoll Hypague, washed, and cultured in methylcellulose media with optimal concentrations of hematopoietic growth factors IL-3, GM-CSF, Stem Cell Factor, IL6, 3 U/ml Eiythropoietin, insulin, bovine serum albumin, and 0.2-0.5 mM concentrations of test compounds of derivatives of cinnamic acid and hydrocinnamic acid. […] The following illustrates some representative cultures: […]

For data set [3], the system named is system A transport of amino acids. The data set is described as follows: System A transport of amino acids. The data set is classed as cell-based. The text has this: Normal cell viability, the viability of an untransformed or uninfected cell, can be determined from analyzing the effects of the composition on one or more biological processes of the cell. Detrimental interference with one or more of these cellular processes becomes significant when the process becomes abnormal. Examples of quantitatable and qualifiable biological processes include the processes of cell division, protein synthesis, nucleic acid (DNA or RNA) synthesis, nucleic acid (principally DNA) fragmentation and apoptosis. Others processes include specific enzyme activities, the activities of the cellular transportation systems such as the transportation of amino acids by system A (neutral), system B (acidic) or system C (basic), and the expression of a cell surface protein. […] Abnormal cell division, for example, can be mitosis which occurs too rapidly, as in a malignancy, or unstably, resulting in programmed cell death or apoptosis, detected by increased DNA degradation. The determination of abnormal cell viability can be made on comparison with untreated control cells. Compositions preferably increase normal cell viability. Increased cell viability can be determined by those of ordinary skill in the art using, for example, DNA fragmentation analysis. […]

Another data set can be described thus: in vivo. The note with it: monkey, po.
Data set [4] can be described thus: Pharmacokinetics after single oral doses in human volunteers. The data set is classed as in vivo. The note with it: FIG. 4, in humans, oral doses of 40-500 mg/kg.
Experimental: (§1) Chronic indwelling venous and arterial catheters which were maintained using sterile technique for blood sampling. Compounds were administered by nasogastric tube and blood was collected to determine drug plasma levels at regular intervals following single oral doses. […] The test compounds were analyzed after ether extraction of the plasma, separation by HPLC, and quantitated by comparison to a spilled internal standard of heptanoic acid according to previously described methods.
Data set [5] can be described thus: Pharmacokinetic studies after single oral doses in baboons. The note with it: monkey, plasma.
Experimental: as §1
For another data set, the system named is thalassemic patients. Kind of data set: Pulsed arginine butyrate infusion in thalassemic disorders. The note with it: 4 days with infusions about 8 hours per day, then 7 days of no treatment. It is filed as in vivo. On the procedure: Individual pulses can be delivered to the patient continuously over a period of several hours, such as about 2, 4, 6, 8, 10, 12, 14 or 16 hours, or several days, such as 2, 3, 4, 5, 6, or 7 days, preferably from about 1 hour to about 24 hours and more preferably from about 3 hours to about 9 hours. Alternatively, periodic doses can be administered in a single bolus or a small number of injections of the composition over a short period of time, typically less than 1 or 2 hours. […] Substantially means that there are positive consequences that raise the patient's standard of living such as, for example, increased activity or mobility, fewer side-effects, fewer hospital stays or visits to the physician, or fewer transfusions.
Compositions administered in pulses have the surprising benefit of reducing the overall load of drug on the patient as the total amount of drug administered can be substantially less than that amount that has been therapeutically administered by conventional continuous therapy. […] Preferably, the therapeutically effective pulsed dose is less than the continuous dose, or less than one half, one third, one quarter, one fifth, one tenth or even one twentieth of the therapeutic continuous dose of the same composition or even less.

Data set [6] is described as follows: In vivo half-life of the composition. On the procedure:
The interval between pulses or the interval of no delivery is greater than 24 hours and preferably greater than 48 hours, and can be for even longer such as for 3, 4, 5, 6, 7, 8, 9 or 10 days, two, three or four weeks or even longer. As the results achieved may be surprising, the interval between pulses, when necessary, can be determined by one of ordinary skill in the art. Often, the interval between pulses can be calculated by administering another dose of the composition when the composition or the active component of the composition is no longer detectable in the patient prior to delivery of the next pulse. Intervals can also be calculated from the in vivo half-life of the composition. Intervals may be calculated as greater than the in vivo half-life, or 2, 3, 4, 5 and even 10 times greater the composition half-life.

Setting [7] is: 100 to 250 mg/kg in two daily doses, intraperitoneal, listed as DMB.

Regarding `Nc1ncn([C@@H]2O[C@H](CO)[C@@H](O)[C@H]2O)c(=O)n1` [AZA, 5-azacytidine], the “increase in γ globin mRNA of bone marrow cells” value with bone marrow cells is reported as “five- to seven”.

Turning to `CC(Cc1ccccc1)C(=O)O` (stereo not drawn) [ST 7, α-methylhydrocinnamic acid], the fold induction at 1000 µM in the data set on K562 cells was in the range of 2.4 to 26. In the data set with K562 cells (1 mM), the “stimulating γ globin compared to control cells (ranking in words)” value was “most active”, the “Radioactivity Alpha Globin (α) mRNA” value came out at 92979, the “Radioactivity Fetal Globin (γ) mRNA” value amounted to 1648056 and the γ/α was found to be 17.7. In addition, in the data set with 32D cells, the “increase in proliferation over 4 days” value was found to be 5 fold. In addition, the “Reticulocytes Peak” value in [1] (100 to 250 mg/kg in two daily doses, intraperitoneal, listed as MHCA) was 17.9 and 23.3. In [1] (baseline of the treated animal, listed as MHCA), the “Reticulocytes Day 0” value was 2.9 and 2.3. Moreover, the “blood cell lineages” value in the data set with anemic baboon is “increase in both white blood cells and total hemoglobin”. Besides, in [2], the “Mean BFU-E/culture 4 cultures averaged (per 0.2 million cells)” value stood at 223. The “% Increase over control” value in data set [2] (BFU-E) was 32.4%. Moreover, the “system A transport of amino acids” value in data set [3] is recorded as “do not significantly alter”. Further, the half-life in “in vivo” is 7.6 h.

`CCC(C)(C)C(=O)O` [ST 20, 2,2 dimethylbutyric acid]: the fold induction at 1000 µM with K562 cells (primer extension, 1 mM, three days of culture, FIG. 1) fell in the range of 2.4 to 26. Further, in the data set with K562 cells (1 mM), the “stimulating γ globin compared to control cells (ranking in words)” value is on record as “most active”, the “Radioactivity Alpha Globin (α) mRNA” value was 178751, the “Radioactivity Fetal Globin (γ) mRNA” value came out at 1697936 and the γ/α is 9.5. For the same molecule, the “time for which plasma levels persisted in the millimolar range” value in data set [4] is “greater than 6 hours”. Also, in data set [1] (setting [7]), the “Reticulocytes Peak” value was 17.7 and 21.3; the “γ/γ + β mRNA Peak” value is 0.36 and 0.31. For the same molecule, the “γ/γ + β mRNA Day 0” value in [1] (baseline of the treated animal, RNase protection, listed as DMB) is 0.20 and 0.17. The “Reticulocytes Day 0” value in data set [1] (baseline of the treated animal, listed as DMB) was 2.4 and 4.2. Besides, the half-life in data set [5] was 6.8 h.

As to arginine butyrate [reference compound], in the data set with K562 cells (1 mM), the “Radioactivity Alpha Globin (α) mRNA” value turned out to be 296132, the “Radioactivity Fetal Globin (γ) mRNA” value is on record as 2176523 and the γ/α was determined as 7.3. For the same molecule, the “Fetal hemoglobin levels” value with thalassemic patients is on record as “rise substantially”. The molecule also had a half-life in data set [6] of 0.25 h.
